# Laboratory results published in PubChem BioAssay AID1259407 (Chemical Carcinogenesis Research Information System (CCRIS), 2018).
# Calls of active or inactive are those of the source. No rule for the calls is given here.
# System: CCRIS mutagenicity, Ames/micronucleus/aberration tests
# Assay: CCRIS mutagenicity studies
# [1] = Test System: AMES SALMONELLA TYPHIMURIUM, Strain/Indicator: TA98, Metabolic Activation: NONE, Method: STANDARD PLATE
# [2] = Test System: AMES SALMONELLA TYPHIMURIUM, Strain/Indicator: TA98, Metabolic Activation: RAT, LIVER, S-9, AROCLOR 1254, Method: STANDARD PLATE
# [3] = Test System: AMES SALMONELLA TYPHIMURIUM, Strain/Indicator: TA100, Metabolic Activation: NONE, Method: STANDARD PLATE
# [4] = Test System: AMES SALMONELLA TYPHIMURIUM, Strain/Indicator: TA100, Metabolic Activation: RAT, LIVER, S-9, AROCLOR 1254, Method: STANDARD PLATE
# [5] = Test System: AMES SALMONELLA TYPHIMURIUM, Strain/Indicator: TA1535, Metabolic Activation: NONE, Method: STANDARD PLATE
# [6] = Test System: AMES SALMONELLA TYPHIMURIUM, Strain/Indicator: TA1535, Metabolic Activation: RAT, LIVER, S-9, AROCLOR 1254, Method: STANDARD PLATE
# [7] = Test System: AMES SALMONELLA TYPHIMURIUM, Strain/Indicator: TA98, Metabolic Activation: NONE, Method: PREINCUBATION
# [8] = Test System: AMES SALMONELLA TYPHIMURIUM, Strain/Indicator: TA100, Metabolic Activation: NONE, Method: PREINCUBATION
compound,measurement,setting,value
CC(=O)N(C(C)=O)c1ccc(C)c(N=Nc2ccccc2C)c1,mutagenic call,"Test System: AMES SALMONELLA TYPHIMURIUM, Strain/Indicator: TA98, Metabolic Activation: NONE, Method: SUSPENSION/PLATE",inactive; negative
same,mutagenic call,"Test System: AMES SALMONELLA TYPHIMURIUM, Strain/Indicator: TA98, Metabolic Activation: RAT, LIVER, S-9, PHENOBARBITAL AND 5,6-BENZOFLAVONE, Method: SUSPENSION/PLATE",inactive; negative
same,mutagenic call,"Test System: AMES SALMONELLA TYPHIMURIUM, Strain/Indicator: TA100, Metabolic Activation: NONE, Method: SUSPENSION/PLATE",inactive; negative
same,mutagenic call,"Test System: AMES SALMONELLA TYPHIMURIUM, Strain/Indicator: TA100, Metabolic Activation: RAT, LIVER, S-9, PHENOBARBITAL AND 5,6-BENZOFLAVONE, Method: SUSPENSION/PLATE",inactive; negative
COc1cc(O)c2c(=O)c(O)c(-c3ccc(O)c(O)c3)oc2c1,mutagenic call,"Test System: AMES SALMONELLA TYPHIMURIUM, Strain/Indicator: TA97, Metabolic Activation: NONE, Method: STANDARD PLATE",inactive; negative
same,mutagenic call,"Test System: AMES SALMONELLA TYPHIMURIUM, Strain/Indicator: TA97, Metabolic Activation: RAT, LIVER, S-9, AROCLOR 1254, Method: STANDARD PLATE",active; positive
same,mutagenic call,[1],inactive; negative
same,mutagenic call,[2],active; positive
same,mutagenic call,[3],inactive; negative
same,mutagenic call,[4],inactive; negative
same,mutagenic call,"Test System: AMES SALMONELLA TYPHIMURIUM, Strain/Indicator: TA102, Metabolic Activation: NONE, Method: STANDARD PLATE",inactive; negative
same,mutagenic call,"Test System: AMES SALMONELLA TYPHIMURIUM, Strain/Indicator: TA102, Metabolic Activation: RAT, LIVER, S-9, AROCLOR 1254, Method: STANDARD PLATE",inactive; negative
same,mutagenic call,[5],inactive; negative
same,mutagenic call,[6],inactive; negative
same,mutagenic call,"Test System: AMES SALMONELLA TYPHIMURIUM, Strain/Indicator: TA1538, Metabolic Activation: NONE, Method: STANDARD PLATE",inactive; negative
same,mutagenic call,"Test System: AMES SALMONELLA TYPHIMURIUM, Strain/Indicator: TA1538, Metabolic Activation: RAT, LIVER, S-9, AROCLOR 1254, Method: STANDARD PLATE",inactive; negative
CC(=O)[O-].CC(=O)[O-].[Hg+2],mutagenic call,"End Point: IN VITRO MICRONUCLEUS, Test System: CHL/IU CELLS, Metabolic Activation: NONE",active; positive
same,mutagenic call,"Test System: CHINESE HAMSTER OVARY, Strain/Indicator: AS52/6-THIOGUANINE, Metabolic Activation: NONE",active; positive
same,mutagenic call,"Test System: CHINESE HAMSTER OVARY, Strain/Indicator: CHO-AS52/6-THIOGUANINE, Metabolic Activation: NONE",active; positive
Fc1ccc(F)c2ncccc12,mutagenic call,"Test System: AMES SALMONELLA TYPHIMURIUM, Strain/Indicator: TA100, Metabolic Activation: RAT LIVER S-9, PHENOBARBITAL AND 5,6-BENZOFLAVONE, Method: PREINCUBATION",active; positive
same,mutagenic call,"Test System: AMES SALMONELLA TYPHIMURIUM, Strain/Indicator: TA100, Metabolic Activation: RAT, LIVER, S-9, PHENOBARBITAL AND 5,6-BENZOFLAVONE, Method: PREINCUBATION",active; positive
OCCCBr,mutagenic call,"Test System: AMES SALMONELLA TYPHIMURIUM, Strain/Indicator: TA97, Metabolic Activation: HAMSTER, LIVER, S-9, AROCLOR 1254 (10%), Method: PREINCUBATION",inactive; negative
same,mutagenic call,"Test System: AMES SALMONELLA TYPHIMURIUM, Strain/Indicator: TA97, Metabolic Activation: NONE, Method: PREINCUBATION",inactive; negative
same,mutagenic call,"Test System: AMES SALMONELLA TYPHIMURIUM, Strain/Indicator: TA97, Metabolic Activation: RAT, LIVER, S-9, AROCLOR 1254 (10%), Method: PREINCUBATION",inactive; negative
same,mutagenic call,"Test System: AMES SALMONELLA TYPHIMURIUM, Strain/Indicator: TA98, Metabolic Activation: HAMSTER, LIVER, S-9, AROCLOR 1254 (10%), Method: PREINCUBATION",inactive; negative
same,mutagenic call,[7],inactive; negative
same,mutagenic call,"Test System: AMES SALMONELLA TYPHIMURIUM, Strain/Indicator: TA98, Metabolic Activation: RAT, LIVER, S-9, AROCLOR 1254 (10%), Method: PREINCUBATION",inactive; negative
same,mutagenic call,"Test System: AMES SALMONELLA TYPHIMURIUM, Strain/Indicator: TA100, Metabolic Activation: HAMSTER, LIVER, S-9, AROCLOR 1254 (10%), Method: PREINCUBATION",active; positive
same,mutagenic call,[8],active; positive
same,mutagenic call,"Test System: AMES SALMONELLA TYPHIMURIUM, Strain/Indicator: TA100, Metabolic Activation: RAT, LIVER, S-9, AROCLOR 1254 (10%), Method: PREINCUBATION",active; positive
same,mutagenic call,"Test System: AMES SALMONELLA TYPHIMURIUM, Strain/Indicator: TA1535, Metabolic Activation: HAMSTER, LIVER, S-9, AROCLOR 1254 (10%), Method: PREINCUBATION",active; positive
same,mutagenic call,"Test System: AMES SALMONELLA TYPHIMURIUM, Strain/Indicator: TA1535, Metabolic Activation: NONE, Method: PREINCUBATION",active; positive
same,mutagenic call,"Test System: AMES SALMONELLA TYPHIMURIUM, Strain/Indicator: TA1535, Metabolic Activation: RAT, LIVER, S-9, AROCLOR 1254 (10%), Method: PREINCUBATION",active; positive
CC(C)(C)C(Br)C(=O)Nc1ccccc1 (centres undefined),mutagenic call,"Test System: AMES SALMONELLA TYPHIMURIUM, Strain/Indicator: TA100, Metabolic Activation: MOUSE, LIVER, S-9, AROCLOR 1254, Method: STANDARD PLATE",inactive; negative
same,mutagenic call,[3],inactive; negative
CCOc1ccc2c(c1)C(C)=CC(C)(C)N2,mutagenic call,[1],inactive; negative
same,mutagenic call,"Test System: AMES SALMONELLA TYPHIMURIUM, Strain/Indicator: TA98, Metabolic Activation: S-9, Method: STANDARD PLATE",inactive; negative
same,mutagenic call,[3],inactive; negative
same,mutagenic call,"Test System: AMES SALMONELLA TYPHIMURIUM, Strain/Indicator: TA100, Metabolic Activation: S-9, Method: STANDARD PLATE",inactive; negative
C1=Cc2c3cc4ccccc4cc3cc3cccc1c23,mutagenic call,[1],active; positive
same,mutagenic call,"Test System: AMES SALMONELLA TYPHIMURIUM, Strain/Indicator: TA98, Metabolic Activation: RAT, LIVER, S-9, AROCLOR 1254 (0.127 OR 1.27 MG S-9 PROTEIN), Method: STANDARD PLATE",active; positive
O=C(O)c1cc([N+](=O)[O-])cc2cccnc12,mutagenic call,[1],active; positive
same,mutagenic call,[2],active; positive
same,mutagenic call,[3],inactive; negative
same,mutagenic call,[4],active; positive
same,mutagenic call,[5],inactive; negative
same,mutagenic call,[6],inactive; negative
same,mutagenic call,"Test System: AMES SALMONELLA TYPHIMURIUM, Strain/Indicator: TA1537, Metabolic Activation: NONE, Method: STANDARD PLATE",inactive; negative
same,mutagenic call,"Test System: AMES SALMONELLA TYPHIMURIUM, Strain/Indicator: TA1537, Metabolic Activation: RAT, LIVER, S-9, AROCLOR 1254, Method: STANDARD PLATE",inactive; negative
OCc1ccc2nc3c(ccc4ccccc43)c(CO)c2c1,mutagenic call,[4],active; positive
[Cl][Pt-2]([Cl])([Cl])[Cl],mutagenic call,[7],active; positive
same,mutagenic call,"Test System: AMES SALMONELLA TYPHIMURIUM, Strain/Indicator: TA98, Metabolic Activation: RAT, LIVER, S-9, AROCLOR 1254, Method: PREINCUBATION",active; positive
same,mutagenic call,[8],active; positive
same,mutagenic call,"Test System: AMES SALMONELLA TYPHIMURIUM, Strain/Indicator: TA100, Metabolic Activation: RAT, LIVER, S-9, AROCLOR 1254, Method: PREINCUBATION",active; positive
O=C1c2ccccc2-c2c1ccc1ccc3ccccc3c21,mutagenic call,[4],inactive; negative
Nc1c(N=Nc2ccc([N+](=O)[O-])cc2)c(S(=O)(=O)O)cc2cc(S(=O)(=O)O)c(N=Nc3ccccc3)c(O)c12,mutagenic call,[1],active; positive
same,mutagenic call,"Test System: AMES SALMONELLA TYPHIMURIUM, Strain/Indicator: TA98, Metabolic Activation: RAT, LIVER, S-9, PHENOBARBITAL, Method: STANDARD PLATE",active; positive
same,mutagenic call,[3],inactive; negative
same,mutagenic call,"Test System: AMES SALMONELLA TYPHIMURIUM, Strain/Indicator: TA100, Metabolic Activation: RAT, LIVER, S-9, PHENOBARBITAL, Method: STANDARD PLATE",active; positive
